Here are results for 13 compounds from patent US11878972B2, “Treatment of neurological disorders” (TORQUR AG, priority 2016, dated 2024).

The subject of data set [1] is pS6 S235/S236 in A2058 cells. The data set is described as follows: In-cell Western blot, pS6 S235/S236. The data set is classed as cell-based. Conditions: treated for 1 hour, normalized to α-tubulin.
Protocol: (§1) Cells are fixed with 4% paraformaldehyde for 30 minutes at room temperature, washed 2 times with 1% BSA in PBS, permeabilized with 0.1% Triton X-100 in PBS/1% BSA for 30 minutes at room temperature and blocked with 5% goat serum in PBS/1% BSA/0.1% Triton X-100 for 30 minutes at room temperature. […] Cells are washed 3 times 5 minutes with PBS/1% BSA/0.1% triton and plate scanned with the Odyssey Infrared Scanning system using both 700 and 800 nm channels. […] To correct for background staining in the data analysis wells are treated only with secondary antibodies.
(§2) For data analysis the mean background signal from channel 700 nm and 800 nm are subtracted from each signal in channel 700 nm and 800 nm, respectively.
(§3) IC50 values of each compound are determined by plotting the normalized pPBK S473 and pS6 S235/S236 signals, respectively, versus the compound concentrations (in logarithmic scale) and then by fitting a sigmoidal dose-response curve with variable slope to the data using GraphPad™ Prism.
A further data set has as its system pPKB S473 in A2058 cells. Put plainly: In-cell Western blot, pPKB S473. The data set is classed as cell-based. Conditions: treated for 1 hour, normalized to α-tubulin.
Data set [2] has as its system female NMRI mice, nonepileptic (sham-SE) and epileptic (pilo-SE). Put plainly: Maximal electroshock seizure threshold test (MEST). The data set is classed as in vivo, mouse. The following applies: for CC50 / threshold increase: Phenobarbital; for increase of the seizure threshold in MEST: 5 mg/kg rapamycin; for increase of the threshold: rapamycin after intraperitoneal injections. The procedure:
A total of 166 adult female NMRI mice were used obtained from Charles River (Sulzfeld, Germany) at a weight range of 21-25 g (mice). Animals were kept under the following conditions: Housing: Animals were housed in groups of max. 8 mice under controlled conditions (temperature: 22±1° C.; humidity: 50% 60%/), under a 12-h light-dark cycle (lights on at 6:00 a.m.). Feeding: Standard laboratory chow (Altromin 1324 standard diet, Altromin Spezialfutter GmbH, Lage, Germany) was provided ad libitum. Drinking water: Tap water was provided ad libitum.
The MEST determines a population seizure threshold in groups of ˜20 animals and not the threshold for an individual animal. In the present study, the MEST was determined by a staircase procedure as previously described. A stimulator (BMT Medizintechnik, Berlin, Germany) that delivered a constant current (adjustable from 1-200 mA regardless of the impedance of the animal) with sinusoidal pulses (50/sec) for 0.2 sec was used.
Current administration was performed via bilateral transcorneal stimulation (using copper electrodes). Before transcorneal stimulation, a drop of tetracaine solution (2%) was administered to the eyes of the mouse for local anesthesia. Two minutes later, the mouse was restrained by hand to press the copper electrodes on both corneas while the stimulus was applied by stepping on a foot pedal switch connected with the stimulator. Electrodes were covered with soft leather and soaked with saline before each current application. […] The first stimulation was started with a current near to the control threshold.
3 (HCl): 40/100 mg in 10 ml (Suspension; 5% PEG 400 and 2% Tween 80, HPBCD (10%6)) • Cpd. 8 (HCl): 12.5/25 mg in 10 ml (5% PEG 400 and 2% Tween 80, HPBCD (10%))
Statistical analysis were calculated using Student's t-test. All tests were used two-sided; a P<0.05 was considered significant.
We performed no special tests for the determination of adverse effects. Mice were observed about 30 min after injection in their home cages for obvious sedation or reduction of wellbeing. Five minutes before electrical stimulation mice were again observed in their home cages and two minutes before stimulation during handling procedure for treatment with local anaesthesia. Every obvious variation from normal behavior was noted. Only phenobarbital induced noticeable sedation which lasted for more than 60 min. All other test drugs (including vehicle solutions) were tolerated without any obvious adverse effects.
On the technique in general: In the maximal electroshock model the usual endpoint is tonic extension of the hind limbs.

The mark [3] stands for this setting: 50 mg/kg Levetiracetam i.p., pretreatment 1 h.

pIC50: −log10 of the molar value.

Protocol for pPKB S473 in A2058 cells: as §1, §2, §3

As to `C[C@H]1COCCN1c1nc(-c2cnc(N)nc2C(F)F)nc(N2CCOCC2)n1` [Compound 9, (S)-4-(difluoromethyl)-5-(4-(3-methylmorpholino)-6-morpholino-1,3,5-triazin-2-yl)pyrimidin-2-amine], the pIC50 (in general, the IC50 on a negative log10 scale, so that one unit is a factor of ten) in data set [1] (Homo sapiens) was 7.14; with pPKB S473 in A2058 cells (Homo sapiens), 7.46.
Consider `Nc1cc(C(F)F)c(-c2nc(N3CCNCC3)nc(N3CCOCC3)n2)cn1` [Compound 12, 4-(difluoromethyl)-5-(4-morpholino-6-(piperazin-1-yl)-1,3,5-triazin-2-yl)pyridin-2-amine], for which the values for the negative-log IC50 (pIC50) (in data set [1]; with pPKB S473 in A2058 cells) were 6.39 and 6.66, respectively.
On the same counts, the results for `Nc1ncc(-c2nc(N3CCNCC3)nc(N3CCOCC3)n2)c(C(F)F)n1` [Compound 13, 4-(difluoromethyl)-5-(4-morpholino-6-(piperazin-1-yl)-1,3,5-triazin-2-yl)pyrimidin-2-amine] are 6.92 and 7.43.
`Nc1cc(C(F)F)c(-c2cc(N3CCOCC3)nc(N3CCOCC3)n2)cn1` [Compound 16, 4-(difluoromethyl)-5-(2,6-dimorpholinopyrimidin-4-yl)pyridin-2-amine]: the negative-log IC50 (pIC50) in data set [1] (Homo sapiens, A2058, 1 h) is 6.74; in the data set with pPKB S473 in A2058 cells (Homo sapiens), 6.68.
In data set [1] (Homo sapiens, A2058, 1 h), `Nc1ncc(-c2cc(N3CCOCC3)nc(N3CCOCC3)n2)c(C(F)F)n1` [Compound 17, 4′-(difluoromethyl)-2,6-dimorpholino-[4,5′-bipyrimidin]-2′-amine] had a negative-log IC50 (pIC50) of 6.83.
Take `Nc1cc(C(F)F)c(-c2nc(N3CCOCC3)cc(N3CCOCC3)n2)cn1` [Compound 18, 4-(difluoromethyl)-5-(4,6-dimorpholinopyrimidin-2-yl)pyridin-2-amine]: the pIC50 in data set [1] (Homo sapiens, A2058, 1 h) is 6.59; in the data set on pPKB S473 in A2058 cells (Homo sapiens), 6.61.
Consider `Nc1cc(C(F)F)c(-c2nc(N3CCOCC3)nc(N3CCSCC3)n2)cn1` [Compound 20, 4-(difluoromethyl)-5-(4-morpholino-6-thiomorpholino-1,3,5-triazin-2-Yl)pyridin-2-amine], for which the negative-log IC50 (pIC50) in data set [1] (Homo sapiens, A2058, 1 h) was 6.60; in the data set on pPKB S473 in A2058 cells (Homo sapiens, A2058, 1 h) it was 6.84.
On the same counts, the results for `Nc1ncc(-c2nc(N3CCOCC3)nc(N3CCSCC3)n2)c(C(F)F)n1` [Compound 21, 4-(difluoromethyl)-5-(4-morpholino-6-thiomorpholino-1,3,5-triazin-2-yl)pyrimidin-2-amine] are 6.67 and 7.24.
For `CC[C@H]1COCCN1c1nc(-c2cnc(N)cc2C(F)F)nc(N2CCOC[C@H]2C)n1` [Compound 85, 4-(difluoromethyl)-5-[4-[(3S)-3-ethylmorpholin-4-yl]-6-[(3R)-3-methylmorpholin-4-yl]-1,3,5-triazin-2-yl]pyridin-2-amine], the pIC50 in data set [1] (Homo sapiens, A2058, 1 h) is 6.62.
In the data set with pPKB S473 in A2058 cells (Homo sapiens, A2058, 1 h), `CC[C@@H]1COCCN1c1nc(-c2cnc(N)cc2C(F)F)nc(N2CCOC[C@H]2C)n1` [Compound 86, 4-(difluoromethyl)-5-[4-[(3R)-3-ethylmorpholin-4-yl]-6-[(3R)-3-methylmorpholin-4-yl]-1,3,5-triazin-2-yl]pyridin-2-amine] showed a pIC50 of 6.64.
Take `CC[C@@H](C(N)=O)N1CCCC1=O` [Levetiracetam, reference compound]: in data set [2] (setting [3]), the “Threshold difference between nonepileptic and epileptic” value is recorded as −4%; the “Threshold difference between vehicle and drug threshold, nonepileptic” value was found to be 21%.
In data set [2] (epileptic mice), `CCC1(c2ccccc2)C(=O)NC(=O)NC1=O` [Phenobarbital, reference compound] had a CC50 of 26.56 mA and a threshold increase of 66%. In data set [2] (nonepileptic mice), the CC50 came out at 25.7 mA and the threshold increase is on record as 69%. In addition, the “duration of noticeable sedation” value in data set [2] (mice observed in home cages after injection) is on record as “more than 60 min”.
Turning to `CO[C@H]1C[C@@H]2CC[C@@H](C)[C@@](O)(O2)C(=O)C(=O)N2CCCC[C@H]2C(=O)O[C@H]([C@H](C)C[C@@H]2CC[C@@H](O)[C@H](OC)C2)CC(=O)[C@H](C)/C=C(\C)[C@@H](O)[C@@H](OC)C(=O)[C@H](C)C[C@H](C)/C=C/C=C/C=C/1C` [rapamycin, reference compound], in data set [2] (epileptic mice), the “increase of the seizure threshold in MEST” value turned out to be 5% and the “increase of the threshold” value is “no effect”. In addition, in data set [2] (nonepileptic mice), the “increase of the seizure threshold in MEST” value was determined as 13% and the “increase of the threshold” value came out at 20%.
